In ChEMBL document CHEMBL4665668, “Design and development of molecular hybrids of 2-pyridylpiperazine and 5-phenyl-1,3,4-oxadiazoles as potential multifunctional agents to treat Alzheimer's disease” (Eur J Med Chem, 2019):
Calls of active or inactive are those of the source. No cut-off for these calls is given here.

Assays:
[1] = target: Beta-secretase 1 (Homo sapiens, UniProt P56817); experiment: Inhibition of human BACE-1 using MOCA-SEV-NL-DAEFR-DNP-RR as substrate preincubated with substrate followed by enzyme addition by FRET assay
[2] = target: Cholinesterase (Homo sapiens, UniProt P06276); experiment: Inhibition of human serum BChE using butyrylthiocholine iodide as substrate preincubated for 10 mins followed by substrate addition by Ellman's method; assay type: cell-free
[3] = target: T1, Acetylcholinesterase (Homo sapiens, UniProt P22303); experiment: Inhibition of human erythrocytes AChE using acetylthiocholine iodide as substrate preincubated for 10 mins followed by substrate addition by Ellman's method; assay type: tissue-based, Erythrocyte
[4] = Permeability of the compound in PBS/EtOH buffer (7:3) at 25 ug/ml after 18 hrs by PAMPA-BBB assay
[5] = tested on: Rattus norvegicus; experiment: (§1) Improvement in learning and spatial memory in icv infused amyloid beta (1 to 42)-induced rat model of Alzheimer's disease assessed as increase in number of platform crossing at 10 mg/kg, po administered daily for 7 days starting from 7 days post surgery and measured after 6 days by Morris water maze test; assay type: functional, organism-based; conditions: time 13.0 day
[6] = Half life in Wistar rat at 10 mg/kg, po measured up to 72 hrs by HPLC analysis; assay type: ADME, organism-based; conditions: in vivo
[7] = target: T1, Acetylcholinesterase; conditions: dose microM 5-20, time 48.0 hrs
[8] = tested on: Rattus norvegicus; experiment: Antioxidant activity in scopolamine-induced Wistar rat model of amnesia assessed as decrease in MDA level at 2.5 to 10 mg/kg, po pretreated for 7 days followed by scopolamine challenge and measured after 30 mins […]; assay type: functional, organism-based; conditions: dose mg/kg 2.5-10, time 7.0 day
[9] = Acute toxicity in Wistar rat assessed as abnormal signs at 100 to 500 mg/kg, po measured up to 14 days by OCED guideline method; assay type: organism-based; conditions: in vivo, 336 h, dose 100-500 mg/kg, time 14 day
[10] = tested on: Rattus norvegicus; experiment: Ex vivo inhibition of AChE in brain of scopolamine-induced Wistar rat model of amnesia at 5 to 10 mg/kg, po pretreated for 7 days followed by scopolamine challenge and measured after 30 mins using acetylthiocholine iodide as substrate by Ellman's method; assay type: functional, organism-based; conditions: dose mg/kg 5-10, time 7.0 day
[11] = tested on: Rattus norvegicus; experiment: Cognitive enhancing effect in po dosed scopolamine-induced Wistar rat model of amnesia assessed as increase in spontaneous alteration pretreated for 7 days followed by scopolamine challenge and measured after 30 mins by Y-maze test; assay type: functional, organism-based; conditions: dose mg/kg 2.5-10, time 7.0 day
[12] = target: Amyloid-beta precursor protein (Homo sapiens) (UniProt P05067); experiment: Inhibition of amyloid beta (unknown origin) self aggregation assessed as roughness index at 10 uM after 10 days by atomic force microscopy; conditions: time 10.0 day
[13] = target: T1, Acetylcholinesterase; experiment: Mixed type inhibition of human erythrocytes AChE assessed as decrease in Vmax using varying levels of acetylthiocholine iodide substrate by Lineweaver-Burk plot analysis; conditions: Erythrocyte
[14] = Acute toxicity in po dosed Wistar rat assessed as maximum tolerated dose by OCED guideline method; assay type: organism-based; conditions: in vivo
[15] = target: Amyloid-beta precursor protein (Homo sapiens) (UniProt P05067); conditions: dose microM 5-20, time 48.0 hrs
[16] = tested on: Rattus norvegicus; experiment: Improvement in learning and spatial memory in icv infused amyloid beta (1 to 42)-induced rat model of Alzheimer's disease assessed as reduction in escape latency at 10 mg/kg, po administered daily for 7 days starting from 7 days post surgery and measured daily for 5 days by Morris water maze test; assay type: functional, organism-based; conditions: time 12.0 day
[17] = tested on: Rattus norvegicus; experiment: Antioxidant activity in scopolamine-induced Wistar rat model of amnesia assessed as increase in SOD level at 2.5 to 10 mg/kg, po pretreated for 7 days followed by scopolamine challenge and measured after 30 mins […]; assay type: functional, organism-based; conditions: dose mg/kg 2.5-10, time 7.0 day
[18] = MRT in Wistar rat at 10 mg/kg, po measured up to 72 hrs by HPLC analysis; assay type: ADME, organism-based; conditions: in vivo
[19] = target: T1, Acetylcholinesterase; experiment: Mixed type inhibition of human erythrocytes AChE using varying levels of acetylthiocholine iodide substrate by Dixon plot analysis; assay type: tissue-based, Erythrocyte
[20] = Cmax in Wistar rat at 10 mg/kg, po measured up to 72 hrs by HPLC analysis; assay type: ADME, organism-based; set-up: route oral, time 72 hrs, dose 10 mg/kg; conditions: in vivo
[21] = target: Amyloid-beta precursor protein (Homo sapiens) (UniProt P05067); experiment: Inhibition of amyloid beta (unknown origin) self aggregation assessed as maximum peak height at 10 uM after 10 days by atomic force microscopy; conditions: time 10.0 day
[22] = AUC (0 to 24 hrs) in Wistar rat at 10 mg/kg, po measured up to 72 hrs by HPLC analysis; assay type: ADME, organism-based; set-up: route oral, dose 10 mg/kg, time 72 hrs; conditions: in vivo
[23] = Tmax in Wistar rat at 10 mg/kg, po measured up to 72 hrs by HPLC analysis; assay type: ADME, organism-based; conditions: in vivo
[24] = target: Amyloid-beta precursor protein (Homo sapiens) (UniProt P05067); experiment: Inhibition of amyloid beta (1 to […]) (unknown origin) self-induced aggregation after 48 hrs by Thioflavin T based fluorometric assay; conditions: dose microM 5-20, time 48.0 hrs
[25] = target: T1, Acetylcholinesterase; experiment: Mixed type inhibition of human erythrocytes AChE assessed as increase in Km using varying levels of acetylthiocholine iodide substrate by Lineweaver-Burk plot analysis; assay type: tissue-based; conditions: Erythrocyte
[26] = tested on: Rattus norvegicus; experiment: Cognitive enhancing effect in scopolamine-induced Wistar rat model of amnesia assessed as increase in spontaneous alteration at 5 to 10 mg/kg, po pretreated for 7 days followed by scopolamine challenge and measured after 30 mins by Y-maze test; assay type: functional, organism-based; conditions: dose mg/kg 5-10, time 7.0 day
[27] = tested on: SH-SY5Y; experiment: Neuroprotective activity against amyloid beta (1 to 42)-induced oxidative stress in human SH-SY5Y cells assessed as effect on cell viability at 10 to 80 uM measured after 24 hrs by MTT assay (reference value: 61 %); assay type: functional; conditions: dose microM 10-80
[28] = tested on: Rattus norvegicus; experiment: Improvement in learning and spatial memory in icv infused amyloid beta (1 to 42)-induced rat model of Alzheimer's disease assessed as reduction in escape latency at 5 mg/kg, po administered daily for 7 days starting from 7 days post surgery and measured daily for 5 days by Morris water maze test; assay type: functional, organism-based; conditions: time 12.0 day
[29] = species: Rattus norvegicus; conditions: Wistar, dose 5.0 mg/kg, time 7.0 day
[30] = tested on: Rattus norvegicus; experiment: as §1, with “5” for “10”; assay type: functional, organism-based; conditions: time 13.0 day

T1 sequence (P22303 whole entry): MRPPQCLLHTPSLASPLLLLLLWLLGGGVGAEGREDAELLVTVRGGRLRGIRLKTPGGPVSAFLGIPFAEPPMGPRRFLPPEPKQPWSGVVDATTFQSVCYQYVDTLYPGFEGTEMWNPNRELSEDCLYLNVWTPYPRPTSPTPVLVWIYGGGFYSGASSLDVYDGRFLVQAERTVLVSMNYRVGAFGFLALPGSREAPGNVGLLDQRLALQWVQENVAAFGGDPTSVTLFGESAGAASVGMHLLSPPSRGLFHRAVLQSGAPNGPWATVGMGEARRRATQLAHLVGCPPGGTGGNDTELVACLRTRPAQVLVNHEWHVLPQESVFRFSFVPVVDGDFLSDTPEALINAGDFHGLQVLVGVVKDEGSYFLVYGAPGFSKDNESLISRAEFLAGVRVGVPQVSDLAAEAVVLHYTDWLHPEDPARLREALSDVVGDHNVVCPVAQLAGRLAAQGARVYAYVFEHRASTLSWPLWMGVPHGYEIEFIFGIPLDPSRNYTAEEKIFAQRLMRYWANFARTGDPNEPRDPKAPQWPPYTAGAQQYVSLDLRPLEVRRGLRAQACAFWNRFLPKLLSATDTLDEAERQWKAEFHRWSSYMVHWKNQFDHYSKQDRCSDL
Cholinesterase, sequence (P06276 whole entry): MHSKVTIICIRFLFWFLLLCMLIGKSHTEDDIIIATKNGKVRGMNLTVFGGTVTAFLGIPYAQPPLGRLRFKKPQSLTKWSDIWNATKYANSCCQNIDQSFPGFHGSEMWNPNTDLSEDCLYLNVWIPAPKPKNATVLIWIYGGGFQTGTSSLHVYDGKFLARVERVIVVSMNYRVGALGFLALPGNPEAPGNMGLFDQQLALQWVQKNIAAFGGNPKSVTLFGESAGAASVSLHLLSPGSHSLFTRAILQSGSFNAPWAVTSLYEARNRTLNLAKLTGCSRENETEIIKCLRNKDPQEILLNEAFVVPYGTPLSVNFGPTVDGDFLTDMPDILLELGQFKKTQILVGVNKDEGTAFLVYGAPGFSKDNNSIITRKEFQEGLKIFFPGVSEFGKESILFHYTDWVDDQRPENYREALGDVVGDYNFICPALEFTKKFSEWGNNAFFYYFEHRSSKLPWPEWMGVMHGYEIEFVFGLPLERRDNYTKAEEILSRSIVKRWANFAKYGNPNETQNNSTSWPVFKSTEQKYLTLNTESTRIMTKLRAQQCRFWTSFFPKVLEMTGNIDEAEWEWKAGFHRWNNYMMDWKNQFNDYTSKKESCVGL
Amyloid-beta precursor protein (Homo sapiens), sequence (P05067 whole entry, the tested form may be a part): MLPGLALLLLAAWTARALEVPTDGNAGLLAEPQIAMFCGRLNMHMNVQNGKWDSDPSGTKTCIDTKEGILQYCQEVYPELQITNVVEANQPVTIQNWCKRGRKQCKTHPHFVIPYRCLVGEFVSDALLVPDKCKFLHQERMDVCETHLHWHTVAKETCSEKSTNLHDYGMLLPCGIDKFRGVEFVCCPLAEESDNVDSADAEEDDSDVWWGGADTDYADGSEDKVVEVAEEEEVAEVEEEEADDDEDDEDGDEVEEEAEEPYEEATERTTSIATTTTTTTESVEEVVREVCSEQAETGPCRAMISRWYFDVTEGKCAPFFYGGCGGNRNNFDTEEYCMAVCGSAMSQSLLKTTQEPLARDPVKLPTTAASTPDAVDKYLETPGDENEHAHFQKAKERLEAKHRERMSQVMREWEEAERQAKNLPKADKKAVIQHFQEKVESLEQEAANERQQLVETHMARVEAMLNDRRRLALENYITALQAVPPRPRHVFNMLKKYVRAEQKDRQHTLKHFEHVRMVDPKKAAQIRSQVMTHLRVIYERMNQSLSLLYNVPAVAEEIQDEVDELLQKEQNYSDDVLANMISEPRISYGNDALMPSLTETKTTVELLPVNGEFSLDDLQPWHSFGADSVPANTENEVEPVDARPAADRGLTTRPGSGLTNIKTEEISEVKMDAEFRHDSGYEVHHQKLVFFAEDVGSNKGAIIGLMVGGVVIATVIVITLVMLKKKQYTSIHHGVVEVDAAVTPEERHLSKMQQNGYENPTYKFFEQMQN
Beta-secretase 1, sequence (P56817 whole entry): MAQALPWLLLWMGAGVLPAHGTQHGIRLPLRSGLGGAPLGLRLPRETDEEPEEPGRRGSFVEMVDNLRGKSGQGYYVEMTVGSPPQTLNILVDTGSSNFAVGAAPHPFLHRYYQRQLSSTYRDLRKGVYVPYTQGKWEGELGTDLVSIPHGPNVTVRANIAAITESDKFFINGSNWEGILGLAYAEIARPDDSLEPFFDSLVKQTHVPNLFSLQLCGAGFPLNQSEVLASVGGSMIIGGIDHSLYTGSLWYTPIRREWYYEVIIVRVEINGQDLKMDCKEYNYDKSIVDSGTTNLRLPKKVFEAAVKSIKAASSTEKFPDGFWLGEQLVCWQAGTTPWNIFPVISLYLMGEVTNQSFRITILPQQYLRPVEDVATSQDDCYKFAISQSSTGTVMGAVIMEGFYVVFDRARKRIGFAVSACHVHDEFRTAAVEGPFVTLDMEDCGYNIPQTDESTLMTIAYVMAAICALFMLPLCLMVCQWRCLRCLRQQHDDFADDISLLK

O=C(N/N=C/c1ccc(F)cc1F)N1CCN(c2ccccn2)CC1
IC50 [1]: 446 nM | IC50 [2]: 3970 nM | IC50 [3]: 682 nM | Papp at 18 h, 25 ug/ml [4]: 4.1 ×10⁻⁶ cm/s

O=C(N/N=C/c1ccc([N+](=O)[O-])cc1)N1CCN(c2ccccn2)CC1
IC50 [1]: 2640 nM | IC50 [2]: 4020 nM | IC50 [3]: 1160 nM

c1ccc(-c2nnc(N3CCN(c4ccccn4)CC3)o2)cc1
IC50 [1]: 3220 nM | IC50 [2]: 3270 nM | IC50 [3]: 341 nM

Cc1ccc(/C=N/NC(=O)N2CCN(c3ccccn3)CC2)cc1
IC50 [1]: 3920 nM | IC50 [2]: > 10000 nM | IC50 [3]: 4780 nM

COc1cc(-c2nnc(N3CCN(c4ccccn4)CC3)o2)cc(OC)c1OC
IC50 [1]: 3240 nM | IC50 [2]: 3640 nM | IC50 [3]: 222 nM

O=C(N/N=C/c1ccc(OC(F)(F)F)cc1)N1CCN(c2ccccn2)CC1
IC50 [1]: 248 nM | IC50 [2]: 4350 nM | IC50 [3]: 2910 nM

Fc1ccc(-c2nnc(N3CCN(c4ccccn4)CC3)o2)cc1
IC50 [1]: 1480 nM | IC50 [2]: 1220 nM | IC50 [3]: 136 nM

Oc1ccc(-c2nnc(N3CCN(c4ccccn4)CC3)o2)c(O)c1
IC50 [1]: 382 nM | IC50 [2]: 3290 nM | IC50 [3]: 1340 nM

O=C(N/N=C/c1ccc(Br)cc1)N1CCN(c2ccccn2)CC1
IC50 [1]: 296 nM | IC50 [2]: 1880 nM | IC50 [3]: 489 nM | Papp at 18 h, 25 ug/ml [4]: 3.6 ×10⁻⁶ cm/s

Fc1ccc(-c2nnc(N3CCN(c4ccccn4)CC3)o2)c(F)c1
Activity [5]: Active | half-life [6]: 12.3 h | Flu intensity [7]: 0.33 | Activity [8]: Active | IC50 [2]: 787 nM | Activity [9]: Non-Toxic | inhibition [10]: Active | Activity [11]: Dose-dependent effect | Activity [12]: 1.84 nm | inhibition [13]: Active | MTD [14]: 100 mg/kg | Flu intensity [15]: 0.3 | Activity [16]: Active | Activity [17]: Active | MRT [18]: 18.4 h | Ki [19]: 30 nM | Cmax [20]: 49.8 ng/mL | Activity [21]: 44.2 nm | AUC(0-t) at 72 h [22]: 721 ng·h/mL | Papp at 18 h, 25 ug/ml [4]: 6.1 ×10⁻⁶ cm/s | Tmax [23]: 5.33 h | inhibition [24]: Active | inhibition [25]: Active | Activity [26]: Active | Activity [27]: 69%

COc1cccc(/C=N/NC(=O)N2CCN(c3ccccn3)CC2)c1OC
IC50 [1]: 6820 nM | IC50 [2]: > 10000 nM | IC50 [3]: > 10000 nM

COc1cc2c(cc1OC)C(=O)C(CC1CCN(Cc3ccccc3)CC1)C2 (stereo not given)
Activity [28]: Active | Flu intensity [15]: 0.31 | inhibition [29]: Active | Activity [30]: Active

O=C(N/N=C/c1ccc(O)cc1O)N1CCN(c2ccccn2)CC1
IC50 [1]: 4640 nM | IC50 [2]: 4820 nM | IC50 [3]: 4680 nM

Cc1ccc(-c2nnc(N3CCN(c4ccccn4)CC3)o2)cc1
IC50 [1]: 2480 nM | IC50 [2]: > 10000 nM | IC50 [3]: 1020 nM

O=C(N/N=C/c1ccc(C(F)(F)F)cc1)N1CCN(c2ccccn2)CC1
IC50 [1]: 1820 nM | IC50 [2]: 4040 nM | IC50 [3]: 1320 nM
